From doi:10.1101/2023.02.27.530254, “Large library docking for cannabinoid-1 receptor agonists with reduced side effects” (bioRxiv, 2024)

Columns and labels:
CB1 = target: T1, CB1 (Rattus norvegicus, UniProt P20272); assay: Radioligand competition binding with [3H]-CP-55,940, rat brain membranes; details: for Ki: rCB1 binding Ki [95% CI], [3H]-CP-55,940 competition, rat brain membranes; for Emax: maximal radioligand displacement, read-out: rCB1 binding Emax [SEM]
T1 construct: membrane preparations from rat brain (source of CB1); tissue Bioivt RAT00BRAINMZN; host or cells: rat brain
T1 sequence (P20272 whole entry): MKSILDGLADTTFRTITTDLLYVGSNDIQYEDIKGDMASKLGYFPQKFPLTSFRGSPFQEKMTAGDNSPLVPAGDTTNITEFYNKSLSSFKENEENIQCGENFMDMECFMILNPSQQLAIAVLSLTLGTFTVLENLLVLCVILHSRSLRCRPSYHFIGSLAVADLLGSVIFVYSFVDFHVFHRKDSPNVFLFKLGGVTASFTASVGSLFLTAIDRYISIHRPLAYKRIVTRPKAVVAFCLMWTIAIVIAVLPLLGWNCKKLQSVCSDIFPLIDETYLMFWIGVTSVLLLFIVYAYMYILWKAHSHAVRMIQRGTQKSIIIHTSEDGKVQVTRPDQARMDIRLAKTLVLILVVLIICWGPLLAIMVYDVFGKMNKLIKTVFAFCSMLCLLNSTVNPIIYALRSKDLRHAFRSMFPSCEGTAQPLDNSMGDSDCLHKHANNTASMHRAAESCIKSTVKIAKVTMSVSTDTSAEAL
Experimental: The results were analyzed using nonlinear regression to determine the IC50 and Ki values for each ligand (Prism by GraphPad Software, Inc., San Diego, CA). The Ki values are expressed as the mean of two to three experiments each performed in triplicate.

hCB1 [1] = target: T2, hCB1 (Homo sapiens, UniProt P21554); assay: Lance Ultra cAMP accumulation assay (inhibition of forskolin-stimulated cAMP), CHO cells; format: cell-based; design: expressed in transfected cells; details: hCB1-expressing cells
T2 sequence (P21554 whole entry): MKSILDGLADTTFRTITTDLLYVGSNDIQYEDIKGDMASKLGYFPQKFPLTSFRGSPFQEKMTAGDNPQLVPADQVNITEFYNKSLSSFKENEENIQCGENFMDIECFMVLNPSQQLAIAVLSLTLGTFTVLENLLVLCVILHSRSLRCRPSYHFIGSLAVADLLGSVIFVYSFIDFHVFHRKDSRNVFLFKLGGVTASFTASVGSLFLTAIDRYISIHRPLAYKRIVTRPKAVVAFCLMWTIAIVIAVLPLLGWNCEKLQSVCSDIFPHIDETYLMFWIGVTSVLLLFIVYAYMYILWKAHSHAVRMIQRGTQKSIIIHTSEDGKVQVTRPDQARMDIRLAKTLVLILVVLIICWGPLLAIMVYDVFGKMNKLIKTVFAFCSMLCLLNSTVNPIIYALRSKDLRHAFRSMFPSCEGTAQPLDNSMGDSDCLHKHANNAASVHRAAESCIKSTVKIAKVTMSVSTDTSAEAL
Experimental: The inhibition of forskolin-stimulated cAMP accumulation assays was carried out using PerkinElmer’s Lance Ultra cAMP kit following the manufacturer’s protocol. In brief, CHO cells stably expressing human CB1R were harvested by incubation with Versene (ThermoFisher Scientific, Waltham, MA) for 10 min, washed once with Hank’s Balanced Salt Solution, and resuspended in stimulation buffer at ~200 cells/μL density. The ligands at eight different concentrations (0.001–10,000 nM) in stimulation buffer (5 μL) containing forskolin (2 μM final concentration) were added to a 384-well plate followed by the cell suspension (5 μL; ~1000 cells/well). The plate was incubated for 30 min at room temperature. Eu-cAMP tracer (5 μL) and Ulight-anti-cAMP (5 μL) working solutions were then added to each well, and the plate was incubated at room temperature for an additional 60 min. Results were measured on a Perkin-Elmer EnVision plate reader. The EC50 values were determined by nonlinear regression analysis using Prism software (GraphPad Software, Inc., San Diego, CA) and are expressed as the mean of three experiments, each performed in triplicate.

hCB1 [2] = target: T2, hCB1; assay: bioSens-All ebBRET effector biosensor signaling profiling, HEK293; format: cell-based; design: host or cells: HEK293 (HEK293SL clone), transient
Experimental: ebBRET-based effector membrane translocation biosensor assays were conducted at Domain Therapeutics NA Inc. (Montreal, QC, Canada) as previously described. […] HEK293 cells were maintained in Dulbecco’s Modified Eagle Medium (DMEM) (Wisent) supplemented with 1% penicillin- streptomycin (Wisent) and 10% (or 2 % for transfection) fetal bovine serum (Wisent) at 37°C with 5% CO2. All biosensor-coding plasmids and related information are the property of Domain Therapeutics NA Inc. The total amount of transfected DNA was adjusted and kept constant at 1 μg per mL of cell culture to be transfected using salmon sperm DNA (Invitrogen) as ‘carrier’ DNA, PEI (polyethylenimine 25 kDa linear, PolyScience) and DNA (3:1 ml PEI:mg DNA ratio) were first diluted separately in 150 mM NaCl then mixed and incubated for at least 20 minutes at room temperature to allow for the formation of DNA/PEI complexes. During the incubation, HEK293 cells were detached, counted, and re-suspended in maintenance medium to a 350,000 cells per mL density. At the end of the incubation period, the DNA/PEI mixture was added to the cells. Cells were finally distributed in 96-well plates (White Opaque 96-well /Microplates, Greiner) at a density of 35,000 cells per well. Forty-eight hours post-transfection, medium was aspirated and replaced with 100 μl of Hank’s Balanced Salt Solution buffer (HBSS) (Wisent) per well using 450-Select TS Biotek plate washer. After 60 min incubation in this medium, 10 μL of 10 μM e-Coelenterazine Prolume Purple (Methoxy e-CTZ) (Nanolight) was added to each well for a final concentration of 1 μM immediately followed by addition of increasing concentrations of the test compounds to each well using the HP D300 digital dispenser (Tecan). All compounds were assayed at 22 concentrations with each biosensor after a 10-minute room temperature incubation period. […] All BRET ratios were standardized using the universal BRET (uBRET) equation: uBRET=BRETratio-A/B-A×10,000 where A is the BRET ratio obtained from transfection of negative control and B is the BRET ratio obtained from transfection of positive control. […] The data were analyzed using the four-parameter logistic non-linear regression model in GraphPad Prism 9.1 and data were presented as means ± CIs of 1–4 independent experiments.
The SEM was calculated for the logEmax/EC50 ratios using the following equation: SEM=σ/n where σ is the standard deviation, and n is the number of experiments.

hCB1 [3] = target: T2, hCB1; assay: Tango β-arrestin-2 recruitment assay, HTLA cells; format: cell-based; design: expressed in transfected cells
Experimental: (§1) The Tango β-arrestin-2 recruitment assays were performed as described. In brief, HTLA cells were transiently transfected with human CB1R or CB2R Tango DNA construct overnight in DMEM supplemented with 10 % FBS, 100 μg ml−1 streptomycin and 100 U ml−1 penicillin. The transfected cells were then plated into poly-L-lysine-coated 384-well white clear-bottom cell culture plates in DMEM containing 1% dialysed FBS at a density of 10,000–15,000 cells per well. After incubation for 6 h, the plates were added with drug solutions prepared in DMEM containing 1% dialysed FBS for overnight incubation. On the day of assay, medium and drug solutions were removed and 20 μl per well of BrightGlo reagent (Promega) was added. The plates were further incubated for 20 min at room temperature and counted using the Wallac TriLux Microbeta counter (PerkinElmer). The results were analysed using GraphPad Prism 9.1. Each experiment was performed in triplicate and functional […] values were determined from the mean of three independent experiments.

hCB2 [4] = target: T3, hCB2 (Homo sapiens, UniProt P34972); assay: Tango β-arrestin-2 recruitment assay, HTLA cells; format: cell-based; design: expressed in transfected cells; host or cells: HTLA (transient); details: for Emax: HTLA, read-out: hCB2 Tango ß-arrestin recruitment Emax [95% CI]
T3 sequence (P34972 whole entry): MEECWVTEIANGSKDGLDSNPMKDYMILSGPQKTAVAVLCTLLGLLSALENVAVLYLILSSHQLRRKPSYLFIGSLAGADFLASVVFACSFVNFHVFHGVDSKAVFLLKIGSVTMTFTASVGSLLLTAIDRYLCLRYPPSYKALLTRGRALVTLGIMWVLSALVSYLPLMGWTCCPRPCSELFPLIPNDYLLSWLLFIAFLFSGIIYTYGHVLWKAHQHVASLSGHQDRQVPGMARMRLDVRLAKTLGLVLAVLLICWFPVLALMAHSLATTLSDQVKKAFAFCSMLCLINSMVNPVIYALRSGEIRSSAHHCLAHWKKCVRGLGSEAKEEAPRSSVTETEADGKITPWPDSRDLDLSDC
Experimental: as §1

CB1R = target: T4, CB1R (Homo sapiens, UniProt P21554, C107A/C139A/C149A/C238A/C355A/C382A/C386A/C415A/C431A/C449A/C98A/R336C); assay: Bimane fluorescence of TM6-labeled minimal cysteine CB1R; format: biochemical; details: 10 μM ligand; apo 459 nm
T4 construct: N-terminal FLAG tag and C-terminal histidine tag was added to human full-length CB1; FLAG (N); histidine tag (C); made in house; host or cells: Spodoptera frugiperda Sf9 (baculovirus)
T4 sequence (P21554 whole entry C98A/C107A/C139A/C149A/C238A/R336C/C355A/C382A/C386A/C415A/C431A/C449A): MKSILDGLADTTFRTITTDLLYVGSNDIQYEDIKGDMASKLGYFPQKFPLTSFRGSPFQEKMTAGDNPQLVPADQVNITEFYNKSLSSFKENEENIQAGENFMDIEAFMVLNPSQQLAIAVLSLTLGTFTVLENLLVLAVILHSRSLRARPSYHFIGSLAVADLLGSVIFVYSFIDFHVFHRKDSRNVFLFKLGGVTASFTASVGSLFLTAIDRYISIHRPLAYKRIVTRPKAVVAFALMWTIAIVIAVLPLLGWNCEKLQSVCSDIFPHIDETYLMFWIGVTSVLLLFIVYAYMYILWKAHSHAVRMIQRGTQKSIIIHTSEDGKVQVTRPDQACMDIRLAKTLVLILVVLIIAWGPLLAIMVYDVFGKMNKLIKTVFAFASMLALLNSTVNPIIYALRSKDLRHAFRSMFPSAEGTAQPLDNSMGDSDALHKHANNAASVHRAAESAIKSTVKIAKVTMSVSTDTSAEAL
Experimental: A minimal cysteine version of CB1R was generated[73] where all the cysteine residues (except C256 and C264) were mutated to alanine. […] Excess label was removed using size exclusion chromatography on a Superdex 200 10/300 Increase column in 20 mM HEPES pH 7.5, 100 mM NaCl and 0.01% MNG/0.001% CHS. Bimane-labeled CB1R at […] was incubated with ligands (10 μM) for one hour at room temperature. Fluorescence data was collected at room temperature in a 150 μL cuvette with a FluorEssence v3.8 software on a Fluorolog instrument (Horiba) in photon-counting mode. Bimane fluorescence was measured by excitation at 370 nm with excitation and emission bandwidth passes of 4 nm. The emission spectra were recorded from 410 to 510 nm with 1 nm increment and 0.1 s integration time.

hCB1 [5] = target: T2, hCB1; assay: Cerep HTRF cAMP inhibition assay, hCB1 CHO-K1 cells; format: cell-based
Experimental: The hCB1 CHO-K1 cells are suspended in HBSS buffer (Invitrogen) complemented with 20 mM HEPES (pH 7.4), then distributed in microplates at a density of 5.103 cells/well in the presence of either of the following: HBSS (basal control), the reference agonist at 30 nM (stimulated control) or the test compounds. […] Following 30 min incubation at 37°C, the cells are lysed, and the fluorescence acceptor (D2-labeled cAMP) and fluorescence donor (anti-cAMP antibody labeled with europium cryptate) are added. […] Each measurement was done in triplicate.

hCB1 [6] = target: T2, hCB1; assay: DiscoverX PathHunter β-arrestin-2 recruitment assay; format: cell-based; details: hCB1 DiscoverX ß-arrestin recruitment EC50 [95% CI]
Experimental: PathHunter cell lines (CHO-K1 lineage expressing hCB1) were expanded from freezer stocks according to standard procedures. Cells were seeded in a total volume of 20 μL into white walled, 384-well microplates and incubated at 37°C for the appropriate time prior to testing. For agonist determination, cells were incubated with sample to induce response. Intermediate dilution of sample stocks was performed to generate 5X sample in assay buffer. 5 μL of 5X sample was added to cells and incubated at 37°C or room temperature for 90 to 180 minutes. Vehicle concentration was 1%. […] Microplates were read following signal generation with a PerkinElmer EnvisionTM instrument for chemiluminescent signal detection. Compound activity was analyzed using CBIS data analysis suite (ChemInnovation, CA).
The data were analyzed in GraphPad Prism 9.1 using “dose–response-stimulation log(agonist) versus response (four parameters)” and data were presented as EC50 or pEC50 ± CIs of one independent experiment in duplicate.

hCB2 [7] = target: T3, hCB2; assay: Cerep cAMP assay; format: cell-based
hCB2 [8] = target: T3, hCB2; assay: TRUPATH BRET2 GoA dissociation assay, HEK293T; format: cell-based; design: expressed in transfected cells; host or cells: HEK293T (transient); details: HEK-293T, read-out: hCB2 BRET2 + GoA Emax [95% CI]
Experimental: […]. GoA dissociation BRET2 assays were performed as previously described with minor modifications. In brief, HEK293T cells were co-transfected overnight with human CB2 receptor, GαoA-Rluc, Gβ3, and Gγ9-GFP2 constructs. After 18–24 hours, the transfected cells were seeded into poly-L-lysine-coated 384-well white clear-bottom cell culture plates at a density of 15,000–20,000 cells and incubated with DMEM containing 1% dialyzed FBS, 100 U mL−1 of penicillin and 100 μg ml−1 of streptomycin for another 24 hours. The next day, the medium was aspirated and washed once with 20 μL of assay buffer (1× HBSS, 20 mM HEPES, 0.1% BSA, pH 7.4). Then, 20 μL of drug buffer containing coelenterazine 400a (Nanolight Technology) at 5 μM final concentration was added to each well and incubated for 5 minutes, followed by the addition of 10 μL of 3X designated drug buffer for 5 minutes. Then, 10 μL of 4X final concentrations of ligands were added for 5 minutes. […] BRET ratio was computed as the ratio of the GFP2 emission to RLuc8 emission. […] Each experiment was performed in triplicate and functional IC50 values were determined from the mean of four independent experiments.

[9] = HEK293, read-out: hCB1 Gi1 Emax [95% CI]
[10] = HEK293, read-out: hCB1 GoB Emax [95% CI]
[11] = HEK293, read-out: hCB1 Gz Emax [95% CI]

SMILES	Ki (CB1) [nM]	functional efficacy (decrease in forskolin stimulated cAMP) (hCB1 [1])	Emax (hCB1 [2]; [9]) [%]	Emax (hCB1 [2]; [10]) [%]	EC50 (hCB1 [2]; hCB1 Gi1 EC50 [95% CI]) [nM]	EC50 (hCB1 [2]; hCB1 Gi1 pEC50 [95% CI]) [nM]	EC50 (hCB1 [2]; hCB1 GoB EC50 [95% CI]) [nM]	Emax (hCB1 [2]; [11]) [%]	EC50 (hCB1 [2]; hCB1 GoB pEC50 [95% CI]) [nM]	EC50 (hCB1 [2]; hCB1 Gz EC50 [95% CI]) [nM]	Emax (CB1) [%]	EC50 (hCB1 [3]) [nM]	EC50 (hCB2 [4]) [nM]	Emax (hCB2 [4]) [%]	other results
Cn1nc(-c2nnc(C(C)(C)Oc3ccc(Cl)cc3)o2)c2ccccc2c1=O [‘0450]	691	modest agonism	49	36	56300	50100	2510	–	–	–	–	–	–	–	–
COC(=O)C(NC(=O)c1cc(C)n(-c2cccc(F)c2)n1)c1cccs1 (stereo not shown) [‘51486]	731	modest agonism	73	74	–	–	711	130	631	1120	–	–	–	–	LE (CB1; ligand efficiency): 0.32; LLE (CB1; lipophilic ligand efficiency): 3.1; EC50 (hCB1 [2]; hCB1 Gi1 EC50 [95% CI], Gi1 sensor): 849 nM
COC(=O)[C@@H]1[C@@H]2CCC[C@@H]2CN1C(=O)c1cc(C)n(-c2cccc(Cl)c2)n1 [‘10010]	1200	–	74	71	814	–	801	144	794	1400	101	> 10000	556	18	% [3H]-CP-55,940 displacement (mean) from single point screen (CB1; screens at 10 μM (white cells), 1 μM (orange) or 300 nM (green), cell colours not visible): 33.86%
COC(=O)[C@@H](NC(=O)c1nn(Cc2ccc(F)cc2)c2ccccc12)C(C)(C)C [MDMB-fubinaca, reference compound]	–	–	–	–	–	–	–	–	–	–	–	–	–	–	bimane spectrum λmax (CB1R): 465 nm
Cc1cc(C(=O)N2CC3(CCC3)C2C2CCCO2)nn1-c1cccc(C(F)(F)F)c1 (stereo not shown) [‘3737]	173	–	–	–	–	–	–	–	–	–	112	> 10000	1500	9	EC50 (hCB1 [5]): 326 nM; Emax (hCB1 [5]; CHO-K1, read-out: hCB1 Cerep cAMP Emax [95% CI]): 99%; EC50 (hCB1 [6]): > 10000 nM; EC50 (hCB2 [7]): 4.3 nM; Emax (hCB2 [7]; read-out: hCB2 Cerep cAMP Emax [95% CI]): 45%
COC(=O)[C@@H]1[C@@H]2CCC[C@@H]2CN1C(=O)c1cc(C)n(-c2cccc(C(F)(F)F)c2)n1 [‘6439]	251	–	95	100	–	63.1	60.9	162	63.1	339	106	> 10000	338	14	Emax (hCB2 [8]): 81%
